Test results published in publication PMC6722883 (FEBS Open Bio, 2019).

Legend:
[1] = target: T1, α3β4 nAChR expressed in Xenopus oocytes (Rattus norvegicus, UniProt P04757+P12392); test: cell-based; assay type: cell-based
T1 construct: expressed in transfected cells; host or cells: Xenopus oocytes injected with cRNA

[2] = buffer or solvent
[3] = target: human serum albumin (HSA) (Homo sapiens, UniProt P02768); conditions: pH 7.2
[4] = pH 3
physchem [5] = conditions: not applicable
physchem [6] = conditions: buffer or solvent

T1 sequence (P04757 26-499 limits assumed): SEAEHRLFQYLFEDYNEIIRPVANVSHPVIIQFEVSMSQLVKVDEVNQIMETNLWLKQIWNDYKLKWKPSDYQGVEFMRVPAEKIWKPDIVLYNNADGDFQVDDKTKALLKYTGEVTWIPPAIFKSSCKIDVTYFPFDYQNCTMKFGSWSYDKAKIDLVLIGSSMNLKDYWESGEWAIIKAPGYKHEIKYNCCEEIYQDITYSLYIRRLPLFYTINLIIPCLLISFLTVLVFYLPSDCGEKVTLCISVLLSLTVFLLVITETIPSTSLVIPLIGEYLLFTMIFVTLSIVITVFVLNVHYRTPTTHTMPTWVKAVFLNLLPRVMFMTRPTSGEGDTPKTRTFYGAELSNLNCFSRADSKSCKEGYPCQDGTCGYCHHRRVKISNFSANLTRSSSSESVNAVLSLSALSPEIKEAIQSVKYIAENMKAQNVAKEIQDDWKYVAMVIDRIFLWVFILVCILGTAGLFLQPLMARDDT
T1 sequence (P12392 21-495 limits assumed): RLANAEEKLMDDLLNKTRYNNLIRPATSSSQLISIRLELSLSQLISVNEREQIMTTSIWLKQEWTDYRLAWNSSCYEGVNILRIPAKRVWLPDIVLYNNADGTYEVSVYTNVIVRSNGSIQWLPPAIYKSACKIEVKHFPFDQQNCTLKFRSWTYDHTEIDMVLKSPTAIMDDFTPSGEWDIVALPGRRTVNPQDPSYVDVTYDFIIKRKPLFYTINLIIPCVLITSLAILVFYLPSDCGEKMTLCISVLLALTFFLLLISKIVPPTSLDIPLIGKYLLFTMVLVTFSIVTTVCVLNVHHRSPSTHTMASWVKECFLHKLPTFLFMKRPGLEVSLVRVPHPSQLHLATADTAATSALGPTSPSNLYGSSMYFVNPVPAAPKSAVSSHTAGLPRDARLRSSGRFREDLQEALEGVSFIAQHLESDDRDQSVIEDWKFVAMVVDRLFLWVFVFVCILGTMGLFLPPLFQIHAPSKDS
human serum albumin (HSA), sequence (P02768 25-609 limits assumed): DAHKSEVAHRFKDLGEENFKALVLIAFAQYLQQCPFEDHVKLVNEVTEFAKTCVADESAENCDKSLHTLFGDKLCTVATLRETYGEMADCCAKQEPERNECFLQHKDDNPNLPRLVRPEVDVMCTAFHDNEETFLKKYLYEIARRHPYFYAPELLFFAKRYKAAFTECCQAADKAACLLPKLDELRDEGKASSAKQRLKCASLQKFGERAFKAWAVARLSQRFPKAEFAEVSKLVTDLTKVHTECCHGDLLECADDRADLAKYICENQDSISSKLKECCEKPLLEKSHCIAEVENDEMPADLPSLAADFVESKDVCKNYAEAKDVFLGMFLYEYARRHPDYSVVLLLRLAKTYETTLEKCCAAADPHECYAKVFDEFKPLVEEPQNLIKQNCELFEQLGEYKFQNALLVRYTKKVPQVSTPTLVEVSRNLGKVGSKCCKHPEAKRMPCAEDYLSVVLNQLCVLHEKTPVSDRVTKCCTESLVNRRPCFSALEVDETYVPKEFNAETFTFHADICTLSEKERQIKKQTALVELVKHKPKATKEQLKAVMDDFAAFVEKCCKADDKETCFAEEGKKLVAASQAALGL

| SMILES | Hill slope [1] | remaining at 8 h [2] [%] | Globular isomer remaining, % of the total [3] [%] | Degradation rate constant K obs (50 °C) [4] | Degradation rate constant K obs (60 °C) [4] | Degradation rate constant K obs (70 °C) [4] | Degradation rate constant K obs (80 °C) [4] | E a, activation energy [4] [kcal/mol] | t0.5, half-life period at 25 °C [4] [days] | t0.9, validity period at 25 °C [4] [days] | remaining at 168 h (physchem [5]) [%] | remaining at 1 min (physchem [6]) [%] | remaining at 16 h (physchem [6]) [%] | IC50 [1] [nM] | Response at 100 nM [1] [%] |
| --- | --- | --- | --- | --- | --- | --- | --- | --- | --- | --- | --- | --- | --- | --- | --- |
| CC[C@H](C)[C@@H]1NC(=O)[C@@H]2CCCN2C(=O)[C@H](CO)NC(=O)[C@H](CCSC)NC(=O)[C@H](C)NC(=O)[C@H](CO)NC(=O)[C@@H]2CSSC[C@H](NC(=O)CN)C(=O)N[C@@H](CSSC[C@@H](C(N)=O)NC1=O)C(=O)N[C@@H](CO)C(=O)N[C@@H](Cc1cnc[nH]1)C(=O)N1CCC[C@H]1C(=O)N[C@@H](C(C)C)C(=O)N2 [TxID, α‐Conotoxin TxID] | 1.17 (0.87–1.46) | 36 | 75 | 1.01 × 10^−3 1/Mh | 2.42 × 10^−3 1/Mh | 5.54 × 10^−3 1/Mh | 2.02 × 10^−2 1/Mh | 27.9842 | 707 | 107 | 95 | 71 | 63 | – | – |
| CC[C@H](C)[C@@H]1NC(=O)[C@@H]2CCCN2C(=O)[C@H](CO)NC(=O)[C@H](CC[S+](C)[O-])NC(=O)[C@H](C)NC(=O)[C@H](CO)NC(=O)[C@@H]2CSSC[C@H](NC(=O)CN)C(=O)N[C@@H](CSSC[C@@H](C(N)=O)NC1=O)C(=O)N[C@@H](CO)C(=O)N[C@@H](Cc1c[nH]cn1)C(=O)N1CCC[C@H]1C(=O)N[C@@H](C(C)C)C(=O)N2 (stereo partly shown) [Product I] | 0.76 (0.65–0.86) | – | – | – | – | – | – | – | – | – | – | – | – | 503 | 15 |
